Measured values taken from patent US10081615B2, “Sulfamate derivative compounds for use in treating or alleviating pain” (Bio-Pharm Solutions Co., Ltd., priority 2013, dated 2018).

system: CFA-induced pain model; test: Antiallodynic activity on Complete Freund's Adjuvant (CFA)-induced inflammatory pain model (von Frey); type: in vivo, Sprague-Dawley rats; conditions: ip; rat, intraperitoneal, 25 mg/kg administered, 0.5 h; read-out: CFA model: effect (%) compared to control
Protocol: Male, Sprague-Dawley rats (200-220 g, Nara Bio, Korea) were habituated for 1 week before surgery and allowed free access to food and water throughout the experimentation. Room temperature and humidity were maintained at 24±2° C. and 50±10%, respectively.
CFA-induced inflammatory pain was induced by the procedure of Nagakura et al. (2003) and Gregory P. et al. (2010) with minor modifications. CFA (sigma, USA) was injected into the left plantar with a 100 ul volume under gaseous anesthesia with isoflurane and NO2 with a 4:4 flow ratio. Sham controls were injected with 100 ul of saline and preparation of the vehicle controls were identical to the group treated with compound, except for administration of vehicles without compound in the vehicle control group.
Tactile sensitivity (mechanical allodynia) was evaluated using von Frey monofilaments before and after treatment, and the animals were included in the study only if the withdrawal threshold value was less than 4 g. One week after surgery, CFA-infused animals (n=4˜6), sham-operated animals (n=12), and vehicle-operated animals (n=17) were tested for tactile sensitivity with von Frey monofilaments, with 3 trials for each animal. All animals were placed in a stainless steel mesh chamber and habituated for 30 min in the test cage. The tactile sensitivity for the ipsilateral hind paw was measured using the up-and-down method (Dixon, 1980) with seven von Frey monofilaments (0.4, 1, 2, 4, 6, 8, and 15 g) in 3 trials. The tactile sensitivity test was followed by Dixon's method (Dixon, 1980). The 50% paw withdrawal threshold for each paw was calculated using the following formula: [Xth] log=[vFr] log+ky where [vFr] is the force of the last von Frey used, k=0.2249 which is the average interval (in log units) between the von Frey monofilaments, and y is a value that depends upon the pattern of the withdrawal responses (Dixon, 1980).
The antiallodynic effect of the compound of Example was evaluated at the doses of 10, 30 and 60 mg/kg (n=4˜6), and were intraperitoneally administered in a volume of 5 ul/g by bodyweight in a vehicle of 30% (v/v) PEG. […]
The relative values compared to the sham (% control) were calculated and are shown in Table 4, which show an antiallodynic effect of the compound of examples in the CFA-induced pain model in rats.

Row | Compound | response vs control in vivo at 25 mg/kg
1 | NS(=O)(=O)OCC1OC2(CCCCC2)Oc2ccc(Cl)cc21 (racemic) [Example 53, (6-chloro-4H-spiro[benzo[d][1,3]dioxine-2,1′-cyclohexan]-4-yl)methyl sulfamate] | 57.3%
2 | CC1(C)Oc2ccc(F)cc2C(COS(N)(=O)=O)O1 (racemic) [Example 54, (6-fluoro-2,2-dimethyl-4H-benzo[d][1,3]dioxin-4-yl)methyl sulfamate] | 82.9%
3 | COc1ccc2c(c1)C(COS(N)(=O)=O)OC(C)(C)O2 (racemic) [Example 57, (6-methoxy-2,2-dimethyl-4H-benzo[d][1,3]dioxin-4-yl)methyl sulfamate] | 39.1%
4 | NS(=O)(=O)OC[C@@H]1OC2(CCCCC2)Oc2ccccc21 [Example 10, ((R)-4H-spiro[benzo[d][1,3]dioxine-2,1′-cylcohexan]-4-yl)methyl sulfamate] | 37.2%
5 | CCC1(CC)Oc2c(Cl)cccc2[C@@H](COS(N)(=O)=O)O1 [Example 29, ((S)-8-chloro-2,2-diethyl-4H-benzo[d][1,3]dioxin-4-yl)methyl sulfamate] | 43.9%

same assay, conditions: ip; rat, intraperitoneal, 50 mg/kg administered, 0.5 h; read-out: CFA model: effect (%) compared to control

Row | Compound | response vs control in vivo at 50 mg/kg
6 | CCC1(CC)Oc2ccccc2C(COS(N)(=O)=O)O1 (racemic) [Example 6, (2,2-diethyl-4H-benzo[d][1,3]dioxin-4-yl))methyl sulfamate] | 64.6%
7 | NS(=O)(=O)OCCC1OC2(CCCCC2)Oc2ccccc21 (racemic) [Example 16, 2-(4H-spiro[benzo[d][1.3]dioxine-2,1′-cyclohexan]-4-yl)ethyl sulfamate] | 38.9%
8 | CCC1(CC)Oc2ccccc2CC(COS(N)(=O)=O)O1 (racemic) [Example 18, (2,2-diethyl-4,5-dihydrobenzo[d][1,3]dioxepin-4-yl)methyl sulfamate] | 91.7%
9 | NS(=O)(=O)OCC1Cc2ccccc2OC2(CCCCC2)O1 (racemic) [Example 20, (4,5-dihydrospiro[benzo[d][1,3]dioxepine-2,1′-cyclohexan]-4-yl)methyl sulfamate] | 69%
10 | CC1(C)Oc2cc(Cl)ccc2C(COS(N)(=O)=O)O1 (racemic) [Example 45, (7-chloro-2,2-dimethyl-4H-benzo[d][1,3]dioxin-4-yl)methyl sulfamate] | 33.1%
11 | CC1(C)Oc2ccc(Cl)cc2C(COS(N)(=O)=O)O1 (racemic) [Example 48, (6-chloro-2,2-dimethyl-4H-benzo[d][1,3]dioxin-4-yl)methyl sulfamate] | 21.7%
12 | CCC1(CC)Oc2ccc(Cl)cc2C(COS(N)(=O)=O)O1 (racemic) [Example 51, (6-chloro-2,2-diethyl-4H-benzo[d][1,3]dioxin-4-yl)methyl sulfamate] | 23.3%
13 | NS(=O)(=O)OC[C@H]1OC2(CCCC2)Oc2ccccc21 [Example 8, ((S)-4H-spiro[benzo[d][1,d]dioxine-2,1′-cyclopentan]-4-yl)methyl sulfamate] | 74.8%
14 | CC1(C)Oc2c(Cl)cccc2[C@@H](COS(N)(=O)=O)O1 [Example 26, ((S)-8-chloro-2,2-dimethyl-4H-benzo[d][1,3]dioxin-4-yl)methyl sulfamate] | 34.2%
15 | NS(=O)(=O)OC[C@H]1OC2(CCCC2)Oc2c(Cl)cccc21 [Example 32, ((S)-8-chloro-4H-spiro[benzo[d][1,3]dioxine-2,1′-cyclopentan]-4-yl)methyl sulfamate] | 51.9%
16 | NS(=O)(=O)OC[C@H]1OC2(CCCCC2)Oc2c(Cl)cccc21 [Example 35, ((S)-8-chloro-4H-spiro[benzo[d][1,3]dioxine-2,1′-cylcohexan]-4-yl)methyl sulfamate] | 15.5%
17 | CC1(C)Oc2ccc(Cl)cc2[C@H](COS(N)(=O)=O)O1 [Example 46, ((R)-6-chloro-2,2-dimethyl-4H-benzo[d][1,3]dioxin-4-yl)methyl sulfamate] | 36.4%
